These results are taken from US20090298895A1, “USE OF THIOPROLINE IN BODY WEIGHT REDUCTION TREATMENTS” (Universidad De Cadiz, priority 2006, published 2009).

Type in all cases: in vivo
The test system of test [1] is CD-1 Swiss/UCàdiz mice. The test can be described thus: Average daily food intake ad libitum. Particulars: diet with 2.0 g l-thioproline/kg of food. As to the method: To study the effect of thioproline, particularly of l-thioproline, on feeding behavior, CD-1 Swiss/UCàdiz mice bred in the Animal Experimentation department of the Universidad de Càdiz were used. The mice were stabled in groups of 5 animals at 22±2° C. with 12 h/12 h of light/dark cycles and with free access, ad libitum, to food and water. The control group received standard laboratory animal food (A04 diet, Panlab LS, Barcelona, Spain), whereas the l-thioproline-supplemented mice received the same food as the mice in the control group, but supplemented with 2.0 g of l-thioproline (Sigma Aldrich)/kg of food from 28 weeks of age and until the end of their lives. The food was weighed daily. The mice were weighed weekly, and it was periodically controlled that the animals were pathogen-free.

Test [2] concerns CD-1 Swiss/UCàdiz mice. The test can be described thus: Survival of thioproline-supplemented mice. As to conditions: for Mean life span / Maximum life expectancy: supplemented mice n=70; for Mean life span: control 62±4 weeks; for Maximum life expectancy: control 118±4 weeks. The source says:
(§1) The mice strain used in this study, CD-1 Swiss/UCàdiz, is a type of mice with accelerated senescence similar to the AKR, SAM, NZB/Lac, and SJL/J mice having a mean life span of 36-57 weeks and a maximum life expectancy of 52-83 weeks. These mice have been used in the Universidad de Càdiz in several survival studies (Navarro A, Gomez C, Sanchez-Pino M J, Gonzalez H. Bandez M J, Boveris A D and Boveris A. Vitamin E at high doses improves survival, neurological performance, and brain mitochondrial function in aging male mice. Am J Physiol Regul Integr Comp Physiol 289: R1392-R1399, 2005; Navarro A, Gomez C, Lopez-Cepero J M and Boveris A. Beneficial effects of moderate exercise on mice aging: survival, behavior, oxidative stress, and mitochondrial electron transfer. Am J Physiol Regul Integr Comp Physiol 286: R505-R511, 2004; Navarro A, Sanchez Del Pino M J, Gomez C, Peralta J L and Boveris A. Behavioral dysfunction, brain oxidative stress, and impaired mitochondrial electron transfer in aging mice. Am J Physiol Regul Integr Comp Physiol 282: R985-R992, 2002).
(§2) The control group received standard laboratory animal food (A04 diet, Panlab LS, Barcelona, Spain), whereas the l-thioproline-supplemented mice received the same food as the mice in the control group, but supplemented with 2.0 g of l-thioproline (Sigma Aldrich)/kg of food from 28 weeks of age and until the end of their lives.
The date on which each mouse died (Example 1) was controlled to be able to obtain the survival curves.

For test [3], the system named is CD-1 Swiss/UCàdiz mice. The test can be described thus: Body weight of mice on l-thioproline-supplemented diet. On the set-up: Variation: percentage reduction in weight between supplemented mice and control mice: concentration or dose not given beside the values. Particulars: for Average weight: average ± SEM.
Description: To study the effect of thioproline, particularly of l-thioproline, on feeding behavior, CD-1 Swiss/UCàdiz mice bred in the Animal Experimentation department of the Universidad de Càdiz were used.
as §1
The mice were stabled in groups of 5 animals at 22±2° C. with 12 h/12 h of light/dark cycles and with free access, ad libitum, to food and water.
as §2
The food was weighed daily. The mice were weighed weekly, and it was periodically controlled that the animals were pathogen-free.

The subject of test [4] is CD-1 Swiss/UCàdiz mice. In words: Neurological tests (tightrope test and T maze test). Particulars: once a week, FIG. 2A, 2B. The source says: The animals of Example 1 were subjected to two tests once a week to evaluate neurological capacities, specifically to the tightrope test and the T maze test. The assayed animals were the animals mentioned in Example 1, i.e. the group of control mice and the group of mice with an l-thioproline-supplemented diet according to the treatment described in the Example 1. This test allows evaluating neuromuscular coordination. The mice were suspended in the center of a 60 cm wide tightrope and the time it took them to reach one of the columns located at the end of the rope was measured. The test was considered positive when the animal reached one of the ends in less than 60 seconds. This test measures spontaneous cognitive neurological activity. The mice were placed in a T maze with 50 cm arms, and the test was considered successful when the mice reached the intersection in less than 60 seconds.

Consider `O=C(O)C1CSCN1` (stereo not drawn) [l-thioproline, thiazolidine-4-carboxylic acid], for which the “Spontaneous reduction of the intake versus control mice” value with CD-1 Swiss/UCàdiz mice [1] was “approximately 20%”. Moreover, in the test with CD-1 Swiss/UCàdiz mice [1] (control 6.3±0.03 g/day), the “Average daily intake ad libitum” value amounted to 5.1 ± 0.03 g/day. Also, in the test on CD-1 Swiss/UCàdiz mice [2] (from 62 weeks to 80 weeks), the “Prolongation of mean life span versus control” value is given as “approximately 29%”. Besides, in the test with CD-1 Swiss/UCàdiz mice [2] (from 118 weeks to 145 weeks), the “Prolongation of maximum life versus control” value is recorded as “approximately 23%”. Also, the Mean life span in the test with CD-1 Swiss/UCàdiz mice [2] is 80 weeks; in the test on CD-1 Swiss/UCàdiz mice [2] (listed as thioproline) it was 80±3 weeks. The figures for the Maximum life expectancy in the test on CD-1 Swiss/UCàdiz mice [2] and in the test on CD-1 Swiss/UCàdiz mice [2] (listed as thioproline) were 145 weeks and 145±3 weeks, respectively. Also, the “Weight increase versus control group” value with CD-1 Swiss/UCàdiz mice [3] (after 12 weeks of l-thioproline-supplemented diet, FIG. 1) is recorded as “smaller weight increase than the increase observed in the control group”. The “Variation: percentage reduction in weight between supplemented mice and control mice” value was found to be 2.06% in the test with CD-1 Swiss/UCàdiz mice [3] (age 28 weeks), 4.45% in the test on CD-1 Swiss/UCàdiz mice [3] (age 52 weeks), 11.65% with CD-1 Swiss/UCàdiz mice [3] (age 78 weeks) and 10.18% with CD-1 Swiss/UCàdiz mice [3] (age 100 weeks). Besides, the Average weight in the test on CD-1 Swiss/UCàdiz mice [3] (age 28 weeks (start of supplementation), diet with 2.0 g l-thioproline/kg of food) was 42.7 ± 0.4 g; in the test on CD-1 Swiss/UCàdiz mice [3] (age 52 weeks, diet with 2.0 g l-thioproline/kg of food from 28 weeks of age) it was 47.2 ± 0.4 g; in the test with CD-1 Swiss/UCàdiz mice [3] (age 78 weeks, diet with 2.0 g l-thioproline/kg of food from 28 weeks of age), 48.5 ± 0.5 g; in the test on CD-1 Swiss/UCàdiz mice [3] (age 100 weeks, diet with 2.0 g l-thioproline/kg of food from 28 weeks of age), 49.4 ± 0.5 g. The “Improvement in the neurological tests compared to control group” value in the test on CD-1 Swiss/UCàdiz mice [4] is recorded as 17-39%.
